According to BigSolDB 2.1:

CSc1nc2cc(Oc3cccc(Cl)c3Cl)c(Cl)cc2[nH]1
solubility (mole fraction)
Settings | 278.15 K | 283.15 K | 288.15 K | 293.15 K | 298.15 K | 303.15 K | 308.15 K | 313.15 K | 318.15 K
in 1,2-dichloroethane | 0.00153 | 0.00187 | 0.00234 | 0.00289 | 0.00365 | 0.00429 | 0.00522 | 0.0063 | 0.00759
in acetonitrile | 0.000629 | 0.000811 | 0.00106 | 0.00136 | 0.00164 | 0.00213 | 0.00264 | 0.0032 | 0.00396
in ethanol | 0.00727 | 0.00878 | 0.0105 | 0.0126 | 0.0151 | 0.0181 | 0.0209 | 0.0244 | 0.0288
in ethyl acetate | 0.0106 | 0.0125 | 0.0147 | 0.0173 | 0.0198 | 0.0232 | 0.0262 | 0.0306 | 0.0354
in ethyl formate | 0.00501 | 0.00632 | 0.00795 | 0.00982 | 0.0121 | 0.0149 | 0.0177 | 0.0215 | 0.0258
in ethylene glycol | 0.000323 | 0.000439 | 0.00057 | 0.000714 | 0.000934 | 0.0012 | 0.00152 | 0.00188 | 0.00231
in isobutanol | 0.00455 | 0.00558 | 0.00698 | 0.00859 | 0.0109 | 0.0132 | 0.0161 | 0.0194 | 0.023
in isopropanol | 0.00215 | 0.00272 | 0.00337 | 0.00411 | 0.00511 | 0.00619 | 0.00757 | 0.00914 | 0.0112
in methanol | 0.00373 | 0.00458 | 0.00565 | 0.00691 | 0.00841 | 0.0101 | 0.0121 | 0.0144 | 0.017
in n-butanol | 0.0221 | 0.0246 | 0.0273 | 0.0302 | 0.0333 | 0.0366 | 0.0399 | 0.0435 | 0.0473
in n-butyl acetate | 0.0159 | 0.0181 | 0.0207 | 0.0232 | 0.0263 | 0.0298 | 0.0334 | 0.0372 | 0.0423
in n-pentyl acetate | 0.0185 | 0.0214 | 0.0241 | 0.0277 | 0.0319 | 0.0361 | 0.0407 | 0.0453 | 0.0511
in n-propanol | 0.00915 | 0.0108 | 0.0125 | 0.0146 | 0.017 | 0.0198 | 0.0229 | 0.0262 | 0.0301
in n-propyl acetate | 0.0124 | 0.0146 | 0.017 | 0.0196 | 0.0228 | 0.0258 | 0.0299 | 0.0338 | 0.039
